Test results as given in the supplement of paper PMC11208160.
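Note: IS621 recombinase and bridge RNA in Escherichia coli cells.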

Assay: recombinant barcode read abundance after kanamycin selection (control-corrected) (log10(CPM+1)); higher = more efficient recombination; sequences stand for … in AGTGCAGAGAAAATCGGCCAGTTTTCTCTGCCTGCAGTCCGCATGCCGT…AGATTTATGCAGCGGACTGCCTTTCTCCCAAAGTGATAAACCGGACAGTATCATGGACCGGTTTTCCCGGTAATCCGTATTTGCAAGGTTGGTTTCACT; site = the 11-nt target
Procedure, shortened: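 Two replicates per condition were plated: chloramphenicol/ampicillin LB agar for the control, and chloramphenicol/ampicillin/kanamycin with 0.1 mM IPTG for selection. The pooled E. coli screen behind them paired targets with IS621 bridge RNA target-binding loops. Recombination efficiency is expressed from averaged, control-corrected barcode counts per million at recombinant junctions, as log10(CPM+1).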
With “AATGCTACTTGGGTTCTAACCTGTTGCCA (site AATGCTACTTG)” the “recombinant barcode read abundance (log10)” value was 0.266. With “GTGTCATCTTGGGTTCTAACCTGTTGCCT (site GTGTCAACTAG)” the “recombinant barcode read abundance (log10)” value was 0.142. For “ATGGGCCCTTGGGTTCTAACCTGTTGCTA (site ATGGGCCCTTA)”, the “recombinant barcode read abundance (log10)” value was 2.17. For “GTGTCCTCTTGGGTTCTAACCTGTTGCGT (site GTGTCCTCTAC)”, the “recombinant barcode read abundance (log10)” value was 2.58. With “CTCTAAACTTGGGTTCTAACCTGTTGCCA (site CTCTAAACTTG)” the “recombinant barcode read abundance (log10)” value was 0.106. For “TATTAGCCTTGGGTTCTAACCTGTTGCCT (site TATTAACCTAG)”, the “recombinant barcode read abundance (log10)” value was 0.138. In the case of “TCTGCGACTTGGGTTCTAACCTGTTGCCT (site TCCGCGACTAG)”, the “recombinant barcode read abundance (log10)” value is reported as 0.455. For “TGTTCTTCTTGGGTTCTAACCTGTTGCCT (site TGTTCTTCTAG)”, the “recombinant barcode read abundance (log10)” value was 0.12. In the case of “CTCGTGACTTGGGTTCTAACCTGTTGCCT (site CTCGTCACTAG)”, the “recombinant barcode read abundance (log10)” value is reported as 0. For “CGGAGTCCTTGGGTTCTAACCTGTTGCTA (site CGGCGTCCTTA)”, the “recombinant barcode read abundance (log10)” value was 0.113. For “GGTAACCCTTGGGTTCTAACCTGTTGCGG (site GGTAACCCTCC)”, the “recombinant barcode read abundance (log10)” value was 2.24. With “CCAGGTCCTTGGGTTCTAACCTGTTGCGT (site CCAGGTCCTAC)” the “recombinant barcode read abundance (log10)” value was 2.45. In the case of “CAGTAGTCTTGGGTTCTAACCTGTTGCCT (site CAGTACTCTAG)”, the “recombinant barcode read abundance (log10)” value is reported as 0.155. With “CTTCGTCCTTGGGTTCTAACCTGTTGCTT (site CTTCGTCCTAG)” the “recombinant barcode read abundance (log10)” value was 0.0453. In the case of “TAGGACACTTGGGTTCTAACCTGTTGCGT (site TAGGATACTAC)”, the “recombinant barcode read abundance (log10)” value is reported as 0.295. In the case of “GGTCGTGCTTGGGTTCTAACCTGTTGCCT (site GGTCGGGCTAG)”, the “recombinant barcode read abundance (log10)” value is reported as 0.106. For “TAGTTCACTTGGGTTCTAACCTGTTGCAT (site TAGATCACTAT)”, the “recombinant barcode read abundance (log10)” value was 0.0793. In the case of “TCGAATCCTTGGGTTCTAACCTGTTGCCT (site TCGAATCCTAG)”, the “recombinant barcode read abundance (log10)” value is reported as 0.173. In the case of “ACAGCCGCTTGGGTTCTAACCTGTTGCCT (site ACAGTCGCTAG)”, the “recombinant barcode read abundance (log10)” value is reported as 0.118. In the case of “CAAACACCTTGGGTTCTAACCTGTTGCCT (site CAAACATCTAG)”, the “recombinant barcode read abundance (log10)” value is reported as 0.287. For “AAGACAGCTTGGGTTCTAACCTGTTGCCT (site AAGAAAGCTAG)”, the “recombinant barcode read abundance (log10)” value was 0.403. For “CGGAAGACTTGGGTTCTAACCTGTTGCCT (site CGGAAGGCTAG)”, the “recombinant barcode read abundance (log10)” value was 0.537. For “TCGAATCCTTGGGTTCTAACCTGTTGCCT (site TCGAAGCCTAG)”, the “recombinant barcode read abundance (log10)” value was 0.0385. For “TCAGAGGCTTGGGTTCTAACCTGTTGCTG (site TCTGAGGCTCA)”, the “recombinant barcode read abundance (log10)” value was 0.156. With “TCTTGTCCTTGGGTTCTAACCTGTTGCGA (site TCTTGTCCTCC)” the “recombinant barcode read abundance (log10)” value was 0.268. For “ATGCAAACTTGGGTTCTAACCTGTTGCCT (site ATGCAAACTAG)”, the “recombinant barcode read abundance (log10)” value was 1.31. With “CAGGGGCCTTGGGTTCTAACCTGTTGCCT (site CAGGGGCCTAG)” the “recombinant barcode read abundance (log10)” value was 1.97. For “TGCCAGCCTTGGGTTCTAACCTGTTGCCT (site TGCCAGCCTAG)”, the “recombinant barcode read abundance (log10)” value was 0.0668. With “GACACGCCTTGGGTTCTAACCTGTTGCCT (site GACACGCCTAG)” the “recombinant barcode read abundance (log10)” value was 0.156. With “AGACGACCTTGGGTTCTAACCTGTTGCGG (site GTCATGTCTGA)” the “recombinant barcode read abundance (log10)” value was 0.016. In the case of “ATGCCTACTTGGGTTCTAACCTGTTGCCT (site ATGCCGACTAG)”, the “recombinant barcode read abundance (log10)” value is reported as 0.0715. In the case of “CTACCAACTTGGGTTCTAACCTGTTGCCT (site CTACCACCTAG)”, the “recombinant barcode read abundance (log10)” value is reported as 0.0179. With “ACAGCCGCTTGGGTTCTAACCTGTTGCCT (site ACAGGCGCTAG)” the “recombinant barcode read abundance (log10)” value was 0.108. For “TGTGCCTCTTGGGTTCTAACCTGTTGCCT (site TGTCCCTCTAG)”, the “recombinant barcode read abundance (log10)” value was 0.02. With “GAAACTCCTTGGGTTCTAACCTGTTGCCT (site GAAATTCCTAG)” the “recombinant barcode read abundance (log10)” value was 0.0462. For “CTAAATCCTTGGGTTCTAACCTGTTGCAT (site CTAACTCCTAT)”, the “recombinant barcode read abundance (log10)” value was 0.0807. With “GTCTCTCCTTGGGTTCTAACCTGTTGCAG (site GTCTCTCCTCT)” the “recombinant barcode read abundance (log10)” value was 0.0635. With “ATTTAAGCTTGGGTTCTAACCTGTTGCCT (site ATTTAAGCTAG)” the “recombinant barcode read abundance (log10)” value was 0.498. In the case of “CGTCGACCTTGGGTTCTAACCTGTTGCCT (site CGTCGACCTAG)”, the “recombinant barcode read abundance (log10)” value is reported as 0.0617. For “GTGTCAACTTGGGTTCTAACCTGTTGCCT (site GTGTCAGCTAG)”, the “recombinant barcode read abundance (log10)” value was 0.0423. For “ACATGGGCTTGGGTTCTAACCTGTTGCCG (site ACATGTGCTCT)”, the “recombinant barcode read abundance (log10)” value was 0.266. With “GACGTAGCTTGGGTTCTAACCTGTTGCCT (site GCCGTAGCTAG)” the “recombinant barcode read abundance (log10)” value was 0.083. With “ATCACAGCTTGGGTTCTAACCTGTTGCCT (site ATCAAAGCTAG)” the “recombinant barcode read abundance (log10)” value was 0.136. With “AGGTGCCCTTGGGTTCTAACCTGTTGCCG (site AGGTGCCCTCG)” the “recombinant barcode read abundance (log10)” value was 1.15. For “TGTCGACCTTGGGTTCTAACCTGTTGCCT (site TGTCGACCTAG)”, the “recombinant barcode read abundance (log10)” value was 0.709. In the case of “AATGATTCTTGGGTTCTAACCTGTTGCGT (site AATGATTCTAC)”, the “recombinant barcode read abundance (log10)” value is reported as 2.27. With “CAGCGGCCTTGGGTTCTAACCTGTTGCCT (site CAGCGGCCTAG)” the “recombinant barcode read abundance (log10)” value was 0.288. For “ACATGAACTTGGGTTCTAACCTGTTGCAT (site ACATGAACTAT)”, the “recombinant barcode read abundance (log10)” value was 1.38. For “CCGCGCACTTGGGTTCTAACCTGTTGCCT (site CCGCGCTCTAG)”, the “recombinant barcode read abundance (log10)” value was 0.206. With “TGCTGTCCTTGGGTTCTAACCTGTTGCCT (site TGCTGTTCTAG)” the “recombinant barcode read abundance (log10)” value was 0.0325. In the case of “GTTCGTCCTTGGGTTCTAACCTGTTGCCA (site CCAATGTCTAC)”, the “recombinant barcode read abundance (log10)” value is reported as 0.104. In the case of “ACTGATTCTTGGGTTCTAACCTGTTGCCT (site ACTGATACTAG)”, the “recombinant barcode read abundance (log10)” value is reported as 0.214. In the case of “TCCCATACTTGGGTTCTAACCTGTTGCCT (site TCCCATCCTAG)”, the “recombinant barcode read abundance (log10)” value is reported as 0.33. In the case of “CTGATTACTTGGGTTCTAACCTGTTGCCT (site CTGATCACTAG)”, the “recombinant barcode read abundance (log10)” value is reported as 0.0584. In the case of “ATGTCCTCTTGGGTTCTAACCTGTTGCCA (site GCTCGGGCTCC)”, the “recombinant barcode read abundance (log10)” value is reported as 0. With “TCATGACCTTGGGTTCTAACCTGTTGCAT (site CTTAACACTCG)” the “recombinant barcode read abundance (log10)” value was 0.159. With “GGAGGGACTTGGGTTCTAACCTGTTGCCT (site GGAGGGACTAG)” the “recombinant barcode read abundance (log10)” value was 2.69. In the case of “TACTAAGCTTGGGTTCTAACCTGTTGCCT (site TACTAAGCTAT)”, the “recombinant barcode read abundance (log10)” value is reported as 0.171. With “TTCCTATCTTGGGTTCTAACCTGTTGCCT (site TCCCTATCTAG)” the “recombinant barcode read abundance (log10)” value was 0.071. With “TATAGAACTTGGGTTCTAACCTGTTGCCT (site TATACAACTAG)” the “recombinant barcode read abundance (log10)” value was 0.0987. For “TGCGGAGCTTGGGTTCTAACCTGTTGCGG (site AACGGAGCTCC)”, the “recombinant barcode read abundance (log10)” value was 0.348. In the case of “TGATCTCCTTGGGTTCTAACCTGTTGCAT (site TGATCTCCTAA)”, the “recombinant barcode read abundance (log10)” value is reported as 0.186. With “AAGTACACTTGGGTTCTAACCTGTTGCTG (site CGACTGTCTAG)” the “recombinant barcode read abundance (log10)” value was 0.0537. In the case of “CTAGATTCTTGGGTTCTAACCTGTTGCCT (site CTAGATTCTAG)”, the “recombinant barcode read abundance (log10)” value is reported as 1.49. In the case of “CTCCAACCTTGGGTTCTAACCTGTTGCCT (site CTCCAACCTAG)”, the “recombinant barcode read abundance (log10)” value is reported as 1.54. For “CGTGCGACTTGGGTTCTAACCTGTTGCAT (site CGTTCGACTAT)”, the “recombinant barcode read abundance (log10)” value was 0.174. For “TGGGGCCCTTGGGTTCTAACCTGTTGCCG (site GCAATTACTAA)”, the “recombinant barcode read abundance (log10)” value was 0.09. In the case of “CTTCGTCCTTGGGTTCTAACCTGTTGCTT (site CTTCGTCCTAC)”, the “recombinant barcode read abundance (log10)” value is reported as 0.68. In the case of “AATGGATCTTGGGTTCTAACCTGTTGCCT (site AATGAATCTAG)”, the “recombinant barcode read abundance (log10)” value is reported as 0.0825. In the case of “CAATCCTCTTGGGTTCTAACCTGTTGCTT (site CAATCCTCTAA)”, the “recombinant barcode read abundance (log10)” value is reported as 0.664. In the case of “AGAGCTCCTTGGGTTCTAACCTGTTGCCG (site AGAGCTCCTCG)”, the “recombinant barcode read abundance (log10)” value is reported as 1.03. In the case of “CTCCGAACTTGGGTTCTAACCTGTTGCAG (site CTCCGAACTCT)”, the “recombinant barcode read abundance (log10)” value is reported as 1.12. For “GATACGCCTTGGGTTCTAACCTGTTGCCT (site GATACGCCTAG)”, the “recombinant barcode read abundance (log10)” value was 0.134. In the case of “CACTTGACTTGGGTTCTAACCTGTTGCCT (site CACTTGTCTAG)”, the “recombinant barcode read abundance (log10)” value is reported as 0.0323. In the case of “TAGAACTCTTGGGTTCTAACCTGTTGCCA (site TAGAACTCTTG)”, the “recombinant barcode read abundance (log10)” value is reported as 0.193. For “ACCTGTCCTTGGGTTCTAACCTGTTGCCT (site ACCTGGCCTAG)”, the “recombinant barcode read abundance (log10)” value was 0.173. In the case of “CGGGAAGCTTGGGTTCTAACCTGTTGCCT (site CGGGAAGCTAG)”, the “recombinant barcode read abundance (log10)” value is reported as 1.61. With “CTACGGACTTGGGTTCTAACCTGTTGCTG (site CTACGCACTCA)” the “recombinant barcode read abundance (log10)” value was 0.206. In the case of “CTAACTCCTTGGGTTCTAACCTGTTGCAT (site CTAAATCCTAT)”, the “recombinant barcode read abundance (log10)” value is reported as 0.0865. In the case of “CTAAGCCCTTGGGTTCTAACCTGTTGCGG (site CTGAGCCCTCG)”, the “recombinant barcode read abundance (log10)” value is reported as 0.0837. With “TGACATGCTTGGGTTCTAACCTGTTGCCT (site TGAAATGCTAG)” the “recombinant barcode read abundance (log10)” value was 0.108. In the case of “GCCACACCTTGGGTTCTAACCTGTTGCCT (site GCCAAACCTAG)”, the “recombinant barcode read abundance (log10)” value is reported as 0.188. With “TAACTAGCTTGGGTTCTAACCTGTTGCTA (site GTGTATACTAT)” the “recombinant barcode read abundance (log10)” value was 0.212. For “GTCTGCCCTTGGGTTCTAACCTGTTGCCT (site GACTGCCCTAG)”, the “recombinant barcode read abundance (log10)” value was 0.181. With “AGTTGTCCTTGGGTTCTAACCTGTTGCCT (site AGTTGTCCTAT)” the “recombinant barcode read abundance (log10)” value was 0.296. For “GAGCTACCTTGGGTTCTAACCTGTTGCCC (site GAGCTACCTGG)”, the “recombinant barcode read abundance (log10)” value was 1.72.
